Laboratory results from article PMC4414180, “SKI2162, an inhibitor of the TGF-β type I receptor (ALK5), inhibits radiation-induced fibrosis in mice” (Oncotarget, 2015).

Assays:
p38 MAPK = biological target: T1, p38 MAPK (Homo sapiens, UniProt Q16539); assay: p38 MAPK selectivity, radioisotope-based (33P) kinase assay; type: biochemical; settings: Supplementary Table 1, unit inferred
T1 construct: GST/histidine tag; made in house; host or cells: insect cells
Protocol: (§1) The kinase activity of ALK5, ALK1, and p38 MAPK were assessed by measuring radiolabelled phosphate (^33P) incorporation into casein. ALK1 and p38 MAPK are closely related to ALK5, and were used for comparison with ALK5 in a SKI2162 selectivity study. IC50 values were calculated from dose–response curves. […]
(§2) www.impactjournals.com/oncotarget/ Oncotarget, Advance Publications 2014 SUPPLEMENTARY METHODS AND MATERIALS
(§3) Cell culture and reagents ACC-3′ (reverse). All samples were normalized to A human keratinocyte cell line (HaCaT) and GAPDH and expressed as the fold induction. Relative an SV40-transformed human fibroblast cell line expression levels were calculated using the comparative (WI38VA13) were cultured in Minimum Essential threshold method. All reactions were done in triplicate.
(§4) Media (Gibco/Life Technologies, USA) or in Dulbecco’s Histopathologic evaluation and fibrosis-related Modified Eagle’s Medium (Gibco/Life Technologies, gene expression in RIF tissues USA), respectively, with 10% fetal bovine serum (Gibco/
(§5) Life Technologies, USA), in a humidified 5% CO2 The skin and soft tissue of the irradiated leg was […]

ALK1 = biological target: T2, ALK1 (Homo sapiens, UniProt P37023); assay: ALK1 selectivity, radioisotope-based (33P) kinase assay; type: biochemical; settings: Supplementary Table 1, unit inferred
T2 construct: GST/histidine tag; made in house; host or cells: insect cells
T2 sequence (P37023 22-503, species assumed): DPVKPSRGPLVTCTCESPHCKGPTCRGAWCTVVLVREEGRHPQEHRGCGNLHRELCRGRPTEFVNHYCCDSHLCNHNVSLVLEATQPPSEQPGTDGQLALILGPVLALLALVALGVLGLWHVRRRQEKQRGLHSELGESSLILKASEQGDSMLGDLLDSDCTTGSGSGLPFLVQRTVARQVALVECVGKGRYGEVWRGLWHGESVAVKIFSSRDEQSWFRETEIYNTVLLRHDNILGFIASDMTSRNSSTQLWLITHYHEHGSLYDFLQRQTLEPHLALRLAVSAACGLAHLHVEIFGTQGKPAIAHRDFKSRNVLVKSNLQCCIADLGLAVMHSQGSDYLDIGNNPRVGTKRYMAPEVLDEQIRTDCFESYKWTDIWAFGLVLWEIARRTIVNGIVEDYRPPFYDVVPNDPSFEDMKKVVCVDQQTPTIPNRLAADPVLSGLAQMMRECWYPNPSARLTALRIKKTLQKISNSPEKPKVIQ
Protocol: as §1, §2, §3, §4, §5

T1 sequence (Q16539 whole entry): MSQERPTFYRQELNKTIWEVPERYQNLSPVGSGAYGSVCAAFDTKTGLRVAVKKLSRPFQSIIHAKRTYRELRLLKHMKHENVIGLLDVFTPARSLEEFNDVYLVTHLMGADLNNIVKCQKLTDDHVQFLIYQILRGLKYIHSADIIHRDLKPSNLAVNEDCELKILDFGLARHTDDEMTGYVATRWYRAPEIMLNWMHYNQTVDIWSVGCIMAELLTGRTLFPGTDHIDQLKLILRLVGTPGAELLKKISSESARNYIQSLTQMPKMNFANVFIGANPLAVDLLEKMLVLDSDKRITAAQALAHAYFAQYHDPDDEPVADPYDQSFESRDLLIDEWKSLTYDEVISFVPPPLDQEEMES

## Cc1cccc(-c2nn3c(c2-c2ccnc4ccc(C(N)=O)cc24)CCC3)n1 [LY2157299]
p38 MAPK
  IC50: 0.379 µM
ALK1
  IC50: 9.9 µM
